From US20230147129A1, “COMPOUNDS FOR USE IN THE TREATMENT OF SYNUCLEINOPATHIES” (SOM INNOVATION BIOTECH, S.A., priority 2020, published 2023)

Columns and labels:
[1] = tested on: primary culture of dopaminergic neurons injured with a mitochondrial toxin (MPP+); test: Neuroprotection in primary culture of dopaminergic neurons injured with MPP+; type: cell-based, rat; settings: compounds 10 nM to 10 μM, pre-incubated 1 or 4 hours, MPP+ 4 μM for 48 hours, FIG. 16-20
Protocol: The efficacy of 5 compounds was assessed in a primary culture of dopaminergic neurons injured with a mitochondrial toxin (MPP+), which is often used to experimentally mimic the pathology of Parkinson disease (FIG. 16 to 20).
To obtain rat dopaminergic neurons, pregnant female rats (Wistar, Janvier Labs, France) of 15 days of gestation were killed using a deep anesthesia in a CO2 chamber followed by a cervical dislocation. Midbrains obtained from 15-day-old rat embryos were dissected under microscope and placed in ice-cold medium of Leibovitz (L15) containing 2% of Penicillin-Streptomycin (PS) and 1% of bovine serum albumin (BSA). The ventral portion of the mesencephalic flexure, a region of the developing brain rich in dopaminergic neurons, was used for the cell preparations.
The midbrains were dissociated by trypsinization for 20 min at 37° C. (solution at a final concentration of 0.05% trypsin and 0.02% EDTA). The reaction was stopped by adding Dulbecco's modified Eagle's medium (DMEM) containing DNAase I grade II (0.5 mg/mL) and 10% of fetal calf serum (FCS). Cells were then mechanically dissociated by 3 passages through a 10 ml pipette. […] The supernatant was discarded and the cell pellet was re-suspended in a defined culture serum-free medium consisting of Neurobasal (Invitrogen) supplemented with B27 (2%), L-glutamine (2 mM) and 2% of PS solution and 10 ng/ml of Brain-derived neurotrophic factor (BDNF) and 1 ng/mL of Glial-Derived Neurotrophic Factor (GDNF). Viable cells were counted in a Neubauer cytometer using the trypan blue exclusion test.
Half of the medium was changed every 2 days with fresh medium. On 96-wells plates, only 60 wells were used, the first columns and first lines were not used to avoid any edge effect, the empty wells were filled with sterile water.
Test compounds were tested on culture in 96-well plates (n=6 culture wells per condition).
Vehicle: Culture medium (0.1% DMSO).
Pre-incubation: On day 6 of culture, the compounds (from 10 nM to 10 μM) were dissolved in DMSO and then in culture medium, and were pre-incubated with primary dopaminergic neurons for 1 hour or 4 hours before the application of MPP+.
Injury: One or four hours after the application of the test compounds, MPP+ was added to a final concentration of 4 μM, diluted in control medium still in presence of compounds for 48 hours.
48 hours after the intoxication, the cell culture supernatant was removed, and the cells were fixed by a solution of 4% paraformaldehyde in PBS, pH=7.3 for 20 min at room temperature. The cells were washed twice in PBS, and then permeabilized. Non-specific sites were blocked with a solution of PBS containing 0.1% saponin and 1% FCS for 15 min at room temperature.
Immunostaining: TH and α-syn
The cultures were incubated with: • A monoclonal anti-Tyrosine Hydroxylase (TH) antibody produced in mouse at dilution of 1/10000 in PBS containing 1% FCS, 0.1% saponin, for 2 hours at room temperature. • a polyclonal anti-alpha synuclein (α-syn) antibody produced in rabbit at dilution of 1/200 in PBS containing 1% FCS, 0.1% saponin, for 2 hours at room temperature.
For each condition, 20 (for the TH survival and α-syn readouts) pictures representing the whole well area, were automatically taken using ImageXpress® (Molecular Devices) at 10× magnification (20 pictures, for TH and α-syn into TH neurons) using the same acquisition parameters. From images, analyses were directly and automatically performed by Custom Module Editor® (Molecular Devices). The following read-outs were measured: • Analysis of total number of THneurons (TH positive neurons), • total length of neurite network of TH positive neurons (in μm), • α-syn aggregation (overlapping between TH and α-syn staining),
Results are expressed in percentage of control. All values show the mean+/−SEM (standard error of the mean) from 4-6 wells per condition.

α-synuclein [2] = molecular target: T1, α-synuclein (Homo sapiens, UniProt P37840); test: Light scattering of α-synuclein aggregates at end-point (48 h); type: biochemical; settings: 48 h end-point; for Normalized light scattering value at 300 nm: normalised to control = 1, excitation 300 nm; for Normalized light scattering value at 340 nm: normalised to control = 1, excitation 340 nm; for Effect on aggregation measured by light scattering at 300 and 340 nm (in words): FIG. 2A and 2B
Protocol: Total aggregate formation at 48 h was measured by light scattering adding 80 μL of pre-aggregated α-synuclein into a quartz cuvette. Samples were previously re-suspended by carefully vortexing and pipetting, and then excited at 300 and 340 nm and 90° scattering collected between 280 to 360 nm. These measurements were performed in a Cary Eclipse Fluorescence Spectrophotometer (Agilent, Santa Clara, Calif., USA).

α-synuclein [3] = molecular target: T1, α-synuclein; test: Thioflavin-T assay of α-synuclein aggregation kinetics; type: biochemical; settings: 100 μM compound, FIG. 1A and 1B
Protocol: Lyophilized α-synuclein was dissolved in PBS (phosphate buffer solution) to a final solution of 210 μM and filtered through a Millipore 0.22 μm filter. α-synuclein aggregation was performed in a 96-well plate (non-treated, black plastic), each well containing a Teflon® polyball ⅛″ diameter (Polysciences Europe GmbH, Eppelheim, Germany), 40 μM Thioflavin-T (Th-T), 70 μM α-synuclein, 100 μM of the compounds to be tested and PBS up to a final volume of 150 μL. The plates were fixed into an orbital culture shaker Max-Q 4000 (Thermo Scientific, Waltham, Mass., USA) to keep the incubation at 37° C., 100 rpm. Every, 2 h, the fluorescence intensity was measured using a Victor 3.0 Multilabel Reader (PerkinElmer, Waltham, Mass., USA), by exciting the mixtures with 430-450 nm filter and collecting the emission intensity with 480-510 nm filter. Each measurement was performed in triplicates.
Each plate contained three (3) α-synuclein controls in the absence of any of the tested compounds. The averaged Th-T fluorescence obtained for these wells at the end of the experience was normalized to 1, and the kinetic curves in the different wells re-scaled accordingly. After compiling the fluorescence signals, means and standard error of mean (SEM) were used to fit the aggregation kinetic with equation (1),
wherein k^b and k^a indicate the homogeneous nucleation rate constant and the secondary rate constant, accounting for fibril elongation and secondary nucleation, respectively.
Re-scaled curves were used to compare the controls with the effect of the compounds and to ensure that the controls were reproducible between different experiments.

| Compound | Loss of dopaminergic neurons (TH number) after MPP+ (in words) [1] | α-syn aggregation (ratio a-syn area/TH number) triggered by MPP+ (in words) [1] | Normalized light scattering value at 300 nm (α-synuclein [2]) | Normalized light scattering value at 340 nm (α-synuclein [2]) | Inhibition of Th-T fluorescence / fibril formation (in words) (α-synuclein [3]) | Effect on aggregation measured by light scattering at 300 and 340 nm (in words) (α-synuclein [2]) |
| --- | --- | --- | --- | --- | --- | --- |
| O=C(c1ccccc1)N1CCN=C1Nc1c(Cl)cccc1Cl [Benclonidine, [2-(2,6-dichloroanilino)-4,5-dihydroimidazol-1-yl]-phenylmethanone] | partially prevented the loss of dopaminergic neurons | decreased α-syn aggregation | 0.95 ± 0.07 | 0.98 ± 0.07 | potent inhibitors | – |
| N=C(N)NCC1COC2(CCCCC2)O1 (centres unmarked) [Guanadrel, 2-(1,4-dioxaspiro[4.5]decan-2-ylmethyl)guanidine] | partially prevented the loss of dopaminergic neurons | decreased α-syn aggregation | 0.68 ± 0.06 | 0.68 ± 0.06 | more modest inhibition of fibril formation | reduced absorbance at both length waves |
| C[C@@H](NCCCc1cccc(C(F)(F)F)c1)c1cccc2ccccc12 [Cinacalcet, N-[(1R)-1-(1-naphthyl)ethyl]-3-[3-(trifluoromethyl)phenyl]propan-1-amine] | – | – | 0.44 ± 0.17 | 0.48 ± 0.18 | – | significant reduction of the absorbance |
| CCCOc1ccc2[nH]c(NC(=O)OC)nc2c1 [Oxibendazole, Methyl N-(6-propoxy-1H-benzimidazol-2-yl) carbamate] | – | – | 0.13 ± 0.02 | 0.51 ± 0.10 | – | significant reduction of the absorbance |
| Cn1ncc(Cl)c1-c1cc(C(=O)N[C@H](CN)Cc2cccc(F)c2)sc1Cl [Afuresertib, N-[(2S)-1-amino-3-(3-fluorophenyl)propan-2-yl]-5-chloro-4-(4-chloro-1-methyl-1H-pyrazol-5-yl)thiophene-2-carboxamide] | partially prevented the loss of dopaminergic neurons | decreased α-syn aggregation | 0.44 ± 0.08 | 0.62 ± 0.09 | potent inhibitors | reduced absorbance at both length waves |
| N=C(NN=Cc1ccc(Cl)cc1)NN=Cc1ccc(Cl)cc1 [Robenidine, 1,2-bis[(4-chlorophenyl)methylideneamino]guanidine] | – | – | 0.31 ± 0.03 | 0.31 ± 0.02 | – | significant reduction of the absorbance |
| N=C(N)NC(=O)Cc1c(Cl)cccc1Cl [Guanfacine, N-(diaminomethylidene)-2-(2,6-dichlorophenyl)acetamide] | partially prevented the loss of dopaminergic neurons | decreased α-syn aggregation | 0.65 ± 0.10 | 0.68 ± 0.10 | more modest inhibition | significant reduction of the absorbance |
| Cc1ccnc(NS(=O)(=O)c2ccc(N)cc2)n1 [Sulfamerazine, 4-amino-N-(4-methylpyrimidin-2-yl)benzenesulfonamide] | – | – | 0.55 ± 0.10 | 0.78 ± 0.14 | potent inhibitors | reduced absorbance at both length waves |
| CC(CCc1ccc2c(c1)OCO2)NCC(O)c1ccc(O)c(C(N)=O)c1 (centres unmarked) [Medroxalol, 5-[2-[[3-(1,3-Benzodioxol-5-yl)-1-methylpropyl]amino]-1-hydroxyethyl]-2-hydroxybenzamide] | – | – | 0.72 ± 0.03 | 0.75 ± 0.04 | more modest inhibition of fibril formation | reduced absorbance at both length waves |
| Nc1nc(=O)c2ncn([C@H]3C=C[C@@H](CO)C3)c2[nH]1 [(−)-Carbovir, 2-amino-9-[(1R,4S)-4-(hydroxymethyl)cyclopent-2-en-1-yl]-1H-purin-6-one] | – | – | 0.72 ± 0.08 | 0.77 ± 0.09 | more modest inhibition of fibril formation | reduced absorbance at both length waves |
